Where a name gives a salt, the structure may show the parent alone.

One data set concerns the target human MCH-1 receptor (Homo sapiens (Human), UniProt Q99705). Put plainly: Binding assay for human melanin-concentrating hormone (MCH1) receptor. The settings on record: membranes from CHO-K1 cells expressing human MCH1 receptor, 1.4 nM [3H]-labeled radioligand, 60 min at 25° C., pH 7.4, Ki from Cheng Prusoff equation. As for the experimental part: Binding Assay for Human Melanin-Concentrating Hormone (MCH1) Receptor
Evaluation of the affinity of compounds for the human MCH-1 receptor was accomplished using 4-(3,4,5-tritritiumbenzyloxy)-1-(1-(2-(pyrrolidin-1-yl)ethyl)-1H-indazol-5-yl)pyridin-2(1H)-one and membranes prepared from stable CHO-K1 cells expressing the human MCH1 receptor obtained from Euroscreen (Batch 1138). Cell membrane homogenates (8.92 μg protein) were incubated for 60 min at 25° C. with 1.4 nM of the [^3H]-labeled compound in the absence or presence of the test compound in 50 mM Tris-HCl buffer, pH 7.4. Nonspecific binding was determined in the presence of 50 μM 1-(5-(4-cyanophenyl)bicyclo[3.1.0]hexan-2-yl)-3-(4-fluoro-3-(trifluoromethyl)phenyl)-1-(3-(4-methylpiperazin-1-yl)propyl)urea. Following incubation, the samples were filtered rapidly under vacuum through Skatron 11731 filters, pre-soaked in 0.5% polyethylenimine, and washed with ice-cold 50 mM Tris-HCl buffer, pH 7.4, (wash setting 9,9,0) using a Skatron cell harvester. The filters were counted for radioactivity in a liquid scintillation counter (Tri-Carb 2100TR, Packard) using a scintillation cocktail (Ultima Gold MV, Perkin Elmer).
The results are expressed as a percent inhibition of the control radioligand specific binding. The IC50 value (concentration causing a half-maximal inhibition of control specific binding) and Hill coefficient (nH) were determined by non-linear regression analysis of the competition curve using Hill equation curve fitting. The inhibition constant (Ki) was calculated from the Cheng Prusoff equation: (Ki=IC50/(1+(L/KD)), where L=concentration of radioligand in the assay, and KD=affinity of the radioligand for the receptor.

human MCH-1 receptor, sequence (Q99705 whole entry): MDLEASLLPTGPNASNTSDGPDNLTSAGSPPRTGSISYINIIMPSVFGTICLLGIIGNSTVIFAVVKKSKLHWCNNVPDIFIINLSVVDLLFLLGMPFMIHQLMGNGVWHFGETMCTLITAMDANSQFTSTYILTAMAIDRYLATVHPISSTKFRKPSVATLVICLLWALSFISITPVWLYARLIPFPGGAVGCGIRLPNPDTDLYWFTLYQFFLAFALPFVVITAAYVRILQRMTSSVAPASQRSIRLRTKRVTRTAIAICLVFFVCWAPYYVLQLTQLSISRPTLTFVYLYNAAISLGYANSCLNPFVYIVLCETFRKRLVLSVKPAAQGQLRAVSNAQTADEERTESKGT

In the case of `Cl.Cn1c2c(c3ccc(-n4ccc(-c5ccc(C(F)(F)F)nc5)cc4=O)cc31)CN1CCCC1C2` (stereo not shown) [Example 30, 1-(10-Methyl-2,3,5,10,11,11a-hexahydro-1H-indolizino[7,6-b]indol-8-yl)-4-(6-(trifluoromethyl)pyridin-3-yl)pyridin-2(1H)-one Hydrochloride], the melting point (usually the temperature of the solid-liquid transition) lay in the range of 290 to 293 °C. Further, the Ki (commonly the equilibrium dissociation constant of an inhibitor or competing ligand from its target) at human MCH-1 receptor stood at 8.3 nM. Molecule `Cl.O=c1cc(-c2ccc(C(F)(F)F)nc2)ccn1-c1ccc2c3c([nH]c2c1)CC1CCCN1C3` (stereo not shown) [Example 41, 1-(2,3,5,10,11,11a-Hexahydro-1H-indolizino[7,6-b]indol-8-yl)-4-(6-(trifluoromethyl)pyridin-3-yl)pyridin-2(1H)-one Hydrochloride] showed a melting point of 275 to 285 °C. The same molecule yielded a Ki on human MCH-1 receptor of 14 nM. For `Cl.Cn1c2c(c3ccc(-n4ccc(OCc5ccc(Cl)cc5F)cc4=O)nc31)C1CCCN1CC2` (stereo not shown) [Example 47, 4-(4-Chloro-2-fluorobenzyloxy)-1-(7-methyl-2,3,5,6,7,11c-hexahydro-1H-pyrido[3′,2′:4,5]pyrrolo[2,3-g]indolizin-9-yl)pyridin-2(1H)-one Hydrochloride], in that order: 150 to 160 °C and 10 nM. Turning to `Cl.Cn1c2c(c3ccc(-n4ccc(OCc5ccccc5)cc4=O)cc31)CCN1CCCC21` (single isomer, unassigned; (-)) [Example 3, (−)4-(Benzyloxy)-1-(11-methyl-2,3,5,6,11,11b-hexahydro-1H-indolizino[8,7-b]indol-9-yl)pyridin-2(1H)-one Hydrochloride], the melting point was in the range of 224 to 228 °C. In addition, at human MCH-1 receptor (Hydrochloride), the affinity, expressed as Ki, was 17.3 nM. `Cl.Cn1c2c(c3ccc(-n4ccc(OCc5ccc(C(F)(F)F)nc5)cc4=O)cc31)CN1CCCCC1C2` (stereo not shown) [Example 34, 1-(5-Methyl-5,6,6a,7,8,9,10,12-octahydroindolo[2,3-b]quinolizin-3-yl)-4-((6-(trifluoromethyl)pyridin-3-yl)methoxy)pyridin-2(1H)-one Hydrochloride] gave a melting point of 260 to 262 °C. At human MCH-1 receptor, this molecule gave a Ki of 24 nM. For `Cl.O=c1cc(OCc2ccccc2)ccn1-c1ccc2c3c([nH]c2c1)CC1CCCN1C3` (stereo not shown) [Example 16, 4-(Benzyloxy)-1-(2,3,5,10,11,11a-hexahydro-1H-indolizino[7,6-b]indol-8-yl)pyridin-2(1H)-one Hydrochloride], in that order: 270 to 273 °C and 7 nM.

For the molecule `Cl.Cn1c2c(c3ccc(-n4ccc(OCc5ccc(Cl)cc5F)cc4=O)nc31)CN1CCCC1C2` (stereo not shown) [Example 54, 4-(4-Chloro-2-fluorobenzyloxy)-1-(11-methyl-5,7,8,9,9a,10-hexahydro-11H-pyrido[3′,2′:4,5]pyrrolo[3,2-f]indolizin-2-yl)pyridin-2(1H)-one Hydrochloride], the melting point lay within 210 to 220 °C. At human MCH-1 receptor, this molecule showed a Ki of 26 nM.

For the molecule `Cl.Cn1c2c(c3ccc(-n4ccc(OCc5ccccc5)cc4=O)cc31)C1CCCN1CC2` (stereo not shown) [Example 17, 4-(Benzyloxy)-1-(7-methyl-2,3,5,6,7,11c-hexahydro-1H-indolizino[7,8-b]indol-9-yl)pyridin-2(1H)-one Hydrochloride], the melting point lay within 260 to 264 °C. At human MCH-1 receptor, the affinity corresponds to a Ki of 12 nM. For `Cl.Cn1c2c(c3ccc(-n4ccc(-c5ccc(C(F)(F)F)cc5)cc4=O)nc31)CN1CCCC1C2` (stereo not shown) [Example 52, 1-(11-Methyl-5,7,8,9,9a,10-hexahydro-11H-pyrido[3′,2′:4,5]pyrrolo[3,2-f]indolizin-2-yl)-4-(4-(trifluoromethyl)phenyl)pyridin-2(1H)-one Hydrochloride], in that order: 300 to 305 °C and 17 nM.

`Cl.Cn1c2c(c3ccc(-n4ccc(OCc5ccccc5)cc4=O)cc31)CCN1CCCC21` (stereo not shown) [Example 2, 4-(Benzyloxy)-1-(11-methyl-2,3,5,6,11,11b-hexahydro-1H-indolizino[8,7-b]indol-9-yl)pyridin-2(1H)-one Hydrochloride] displayed a melting point of 167 to 170 °C. The molecule further came in with a Ki at human MCH-1 receptor (Hydrochloride) of 14.9 nM.

Molecule `Cl.Cn1c2c(c3ccc(-n4ccc(OCc5ccccc5)cc4=O)cc31)CCN1CCCC21` (single isomer, unassigned; (+)) [Example 4, (+)4-(Benzyloxy)-1-(11-methyl-2,3,5,6,11,11b-hexahydro-1H-indolizino[8,7-b]indol-9-yl)pyridin-2(1H)-one Hydrochloride] showed a melting point of 227 to 230 °C. The molecule further showed a Ki on human MCH-1 receptor (Hydrochloride) of 12.3 nM. In turn, `Cl.Cn1c2c(c3ccc(-n4ccc(OCc5ccc(C(F)(F)F)nc5)cc4=O)cc31)CN1CCCC1C2` (stereo not shown) [Example 32, 1-(10-Methyl-2,3,5,10,11,11a-hexahydro-1H-indolizino[7,6-b]indol-8-yl)-4-((6-(trifluoromethyl)pyridin-3-yl)methoxy)pyridin-2(1H)-one Hydrochloride] registered a melting point of 255 to 259 °C. On human MCH-1 receptor, this molecule registered a Ki of 24 nM. For `Cl.Cn1c2c(c3ccc(-n4ccc(OCc5ccccc5)cc4=O)cc31)CCN1CCCCC21` (stereo not shown) [Example 5, 4-(Benzyloxy)-1-(12-methyl-1,2,3,4,6,7,12,12b-octahydroindolo[2,3-a]quinolizin-10-yl)pyridin-2(1H)-one Hydrochloride], in that order: 210 to 213 °C and 31 nM. In turn, `Cc1ccc(COc2ccn(-c3ccc4c5c(n(C)c4c3)CC3CCCCN3C5)c(=O)c2)cn1` (stereo not shown) (as salt: hydrochloride) [Example 33, 1-(5-Methyl-5,6,6a,7,8,9,10,12-octahydroindolo[2,3-b]quinolizin-3-yl)-4-((6-methylpyridin-3-yl)methoxy)pyridin-2(1H)-one Dihydrochloride] yielded a melting point of 270 to 272 °C. Molecule `Cn1c2c(c3ccc(-n4ccc(OCc5ccc(F)cn5)cc4=O)cc31)C1CCCN1CC2` (stereo not shown) (as salt: hydrochloride) [Example 19, 4-((5-Fluoropyridin-2-yl)methoxy)-1-(7-methyl-2,3,5,6,7,11c-hexahydro-1H-indolizino[7,8-b]indol-9-yl)pyridin-2(1H)-one Dihydrochloride] showed a melting point of 240 to 243 °C. On the same count and under the same terms, next, `Cn1c2c(c3ccc(-n4ccc(OCc5ccc(F)cn5)cc4=O)cc31)CCN1CCCC21` (stereo not shown) (as salt: hydrochloride) [Example 43, 4-((5-Fluoropyridin-2-yl)methoxy)-1-(11-methyl-2,3,5,6,11,11b-hexahydro-1H-indolizino[8,7-b]indol-9-yl)pyridin-2(1H)-one Dihydrochloride]: 290 to 293 °C; `Cn1c2c(c3ccc(-n4ccc(OCc5ccc(F)cn5)cc4=O)cc31)CN1CCCCC1C2` (stereo not shown) (as salt: hydrochloride) [Example 37, 4-((5-Fluoropyridin-2-yl)methoxy)-1-(5-methyl-5,6,6a,7,8,9,10,12-octahydroindolo[2,3-b]quinolizin-3-yl)pyridin-2(1H)-one Dihydrochloride]: 235 to 238 °C; `Cc1ccc(-c2ccn(-c3ccc4c5c(n(C)c4c3)CCN3CCCC53)c(=O)c2)cn1` (stereo not shown) (as salt: hydrochloride) [Example 15, 1-(7-Methyl-2,3,5,6,7,11c-hexahydro-1H-indolizino[7,8-b]indol-9-yl)-4-(6-methylpyridin-3-yl)pyridin-2(1H)-one Hydrochloride]: 280 to 283 °C.

The record behind these values is patent publication US8618299B2, “Azinone-substituted azapolycycle MCH-1 antagonists, methods of making, and use thereof” (Albany Molecular Research, Inc., priority 2009, dated 2013).
